# Assay: Human HepG2 cell viability assay in 384 well format
# Type: toxicity, cell-based
# Design: dose 125 nL, time 70.5 hour; concentration not given beside the values
# Details: HepG2 cells, read-out: Inhibition
smiles,measurement,value
Cc1cnn(CCNCc2ccc(OCc3cccnc3)cc2)c1,cytotoxicity at 70.5 h,-4.14%
Cc1cc(C(=O)NCc2ccc(N3CCCC(C(N)=O)C3)cc2)on1 (configuration not stated),cytotoxicity at 70.5 h,-3.31%
Cc1nn(C)c(N(C)C)c1CNCc1ccccc1CO,cytotoxicity at 70.5 h,-0.166%
O=C(c1ccc2c(c1)OCO2)N1CCCC(n2ccnc2)C1 (configuration not stated),cytotoxicity at 70.5 h,10.2%
COc1cc(C(=O)N2CCCC(n3ccnc3)C2)cc2c1OCCO2 (configuration not stated),cytotoxicity at 70.5 h,-7.87%
CCc1ccsc1C(=O)N1CCN(CC(C)(C)O)CC1,cytotoxicity at 70.5 h,-5.61%
CN(C)CC1CN(Cc2coc(-c3ccccc3)n2)CCO1 (configuration not stated),cytotoxicity at 70.5 h,-5.29%
CC(C)(O)CN1CCN(C(=O)c2sccc2C#N)CC1,cytotoxicity at 70.5 h,-3.64%
Cc1cnn(CC2CCCN2Cc2noc(C(C)C)n2)c1 (configuration not stated),cytotoxicity at 70.5 h,-5.54%
Cc1cc(C(=O)N2CCCC2c2c(C)nn(C)c2C)no1 (configuration not stated),cytotoxicity at 70.5 h,-10.1%
Cc1cnn(CC2CCCN2Cc2noc(CC(C)C)n2)c1 (configuration not stated),cytotoxicity at 70.5 h,-0.847%
O=C(c1sccc1C1CC1)N1CCN(CC(F)(F)F)CC1,cytotoxicity at 70.5 h,-1.63%
Cc1cnn(CC(C)NCc2ccccc2OCc2cccnc2)c1 (configuration not stated),cytotoxicity at 70.5 h,-7.82%
O=C(c1cc(Cl)c2c(c1)OCO2)N1CCCC(n2cncn2)C1 (configuration not stated),cytotoxicity at 70.5 h,-4.61%
Cc1cc(C)n(CC2CN(CC(=O)NCc3ccccn3)CCO2)n1 (configuration not stated),cytotoxicity at 70.5 h,-2.74%
Cc1cnn(CC2CCCN2Cc2noc(C(C)(C)C)n2)c1 (configuration not stated),cytotoxicity at 70.5 h,-2.54%
CCn1cnnc1CNC(=O)N1CCCC1,cytotoxicity at 70.5 h,5.61%
Cc1nn(C)c(N(C)C)c1CNCc1cccc(Cn2cncn2)c1,cytotoxicity at 70.5 h,-3.12%
Cc1cnn(CC(C)NCc2ccc(OCc3noc(C)n3)cc2)c1 (configuration not stated),cytotoxicity at 70.5 h,-0.0911%
Cc1cnn(CC(C)NCc2ccncc2)c1 (configuration not stated),cytotoxicity at 70.5 h,0.737%
Cc1cnn(CC(C)NCc2ccc(OCc3nccn3C)cc2)c1 (configuration not stated),cytotoxicity at 70.5 h,-5.96%
Cc1cnn(CC2CCCCN2C(=O)Cc2cn3ccsc3n2)c1 (configuration not stated),cytotoxicity at 70.5 h,11.4%
Cc1nc(C2CCCN(C(=O)c3cccc4c3OCCO4)C2)no1 (configuration not stated),cytotoxicity at 70.5 h,-1.54%
Cc1nnc2n1CCN(CCOc1cccc(C#N)c1)C2,cytotoxicity at 70.5 h,-4.21%
CC(NCc1cc(F)ccc1F)c1ccc(OCC(=O)NC2CC2)cc1 (configuration not stated),cytotoxicity at 70.5 h,-1.77%
CC(Cc1ccc(Cl)cc1)NC(=O)Nc1cnn(CC(N)=O)c1 (configuration not stated),cytotoxicity at 70.5 h,-8.4%
CC(NCc1cccc(Cl)c1)c1ccc(OCC(=O)NC2CC2)cc1 (configuration not stated),cytotoxicity at 70.5 h,-4.37%
CCN(Cc1nc2c(cnn2C)c(=O)[nH]1)c1cccc(C)c1,cytotoxicity at 70.5 h,4.24%
CCN(Cc1nc2c(cnn2C)c(=O)[nH]1)c1ccc(F)cc1,cytotoxicity at 70.5 h,-3.68%
Cc1ccccc1CC(C)NC(=O)Nc1cnn(CC(N)=O)c1 (configuration not stated),cytotoxicity at 70.5 h,-0.765%
COc1ccc(COCC(O)CNC(=O)Cc2ccc(C)cc2)cc1 (configuration not stated),cytotoxicity at 70.5 h,-2.43%
O=C(Cc1ccccc1F)N1CCN(Cc2noc(C3CC3)n2)CC1,cytotoxicity at 70.5 h,10.8%
COc1ccc(COCC(O)CNC(=O)c2ccc(C)c(F)c2)cc1 (configuration not stated),cytotoxicity at 70.5 h,-1.89%
COc1ccc(COCC(O)CNC(=O)c2ccc(C#N)cc2)cc1 (configuration not stated),cytotoxicity at 70.5 h,-5.39%
c1cnn(CC2CN(c3ncnc4[nH]ccc34)CCO2)c1 (configuration not stated),cytotoxicity at 70.5 h,-0.974%
COc1ccc(COCC(O)CNC(=O)c2ccncc2)cc1 (configuration not stated),cytotoxicity at 70.5 h,-1.56%
c1nc(N2CCOC(Cn3cncn3)C2)c2cc[nH]c2n1 (configuration not stated),cytotoxicity at 70.5 h,-6.11%
CCN1CCC(NC(=O)CN2CCCC2Cn2cc(C)cn2)CC1 (configuration not stated),cytotoxicity at 70.5 h,0.649%
CCc1ocnc1C(=O)N1CCOC(c2nc(C)n[nH]2)C1 (configuration not stated),cytotoxicity at 70.5 h,-1.72%
Cn1ccnc1CN1CCCN(C(=O)COC2CCCCC2)CC1,cytotoxicity at 70.5 h,22.3%
CC(C)n1ccnc1CN1CCCN(C(=O)CN(C)C2CC2)CC1,cytotoxicity at 70.5 h,-5.01%
CCn1ccnc1CN1CCCN(C(=O)COC2CCCCC2)CC1,cytotoxicity at 70.5 h,-3.09%
Cc1ccoc1C(=O)NC1CCN(Cc2cccc3ccccc23)CC1,cytotoxicity at 70.5 h,1.33%
COc1ccccc1C(=O)N1CCC(Nc2ccc(C)nn2)CC1,cytotoxicity at 70.5 h,-8.98%
CCc1noc(CN(Cc2cccs2)CC2CCCO2)n1 (configuration not stated),cytotoxicity at 70.5 h,-1.65%
CC(=O)NCC1CCN(C(=O)NCCc2ccc(Cl)s2)CC1,cytotoxicity at 70.5 h,-6.89%
CC(=O)N1CCCN(C(=O)NCc2ccc(Cl)s2)CC1,cytotoxicity at 70.5 h,-3.07%
CC(C)c1ccc(S(=O)(=O)N2CSCC2C(=O)NCC(F)(F)F)cc1 (configuration not stated),cytotoxicity at 70.5 h,-7.38%
Cc1cn2nc(N3CCN(Cc4cc(C)on4)CC3)sc2n1,cytotoxicity at 70.5 h,-2.77%
CCn1ccnc1CN1CCOC(Cn2cccn2)C1 (configuration not stated),cytotoxicity at 70.5 h,22.6%
COc1ccc(C(=O)N2CCC(Nc3cccnn3)CC2)c(F)c1,cytotoxicity at 70.5 h,-3.14%
COc1ccc(C(=O)N2CCC(Nc3ccc(C)nn3)CC2)cc1,cytotoxicity at 70.5 h,0.696%
c1cnnc(N2CCCC2CNc2cnc3ccccc3n2)c1 (configuration not stated),cytotoxicity at 70.5 h,-2.61%
Cc1ccc(NS(=O)(=O)c2cc3c(c(C(=O)O)c2)OCCO3)cc1C,cytotoxicity at 70.5 h,-5.96%
O=C(O)c1cc(S(=O)(=O)Nc2cc(Cl)ccc2F)cc2c1OCCO2,cytotoxicity at 70.5 h,23%
O=C(NCCc1ccc(I)s1)N1CCC1,cytotoxicity at 70.5 h,-2.1%
Cc1cc2n(n1)CC(CNCc1ccc(-n3cccn3)nc1)CN2 (configuration not stated),cytotoxicity at 70.5 h,3.95%
CCOc1ccccc1C(CC(=O)Nc1nc(C)cs1)NC(C)=O (configuration not stated),cytotoxicity at 70.5 h,-8.99%
Cc1cc(C)n(CC2CCCN2C(=O)CCCc2ccccn2)n1 (configuration not stated),cytotoxicity at 70.5 h,-5.04%
CC(C)c1ncc2c(n1)CN(Cc1ccc(C(N)=O)cc1)CC2,cytotoxicity at 70.5 h,24.1%
CC(C(=O)NCc1cccc(N2CC=CC2)c1)n1cccn1 (configuration not stated),cytotoxicity at 70.5 h,-7.35%
Cc1nc(C2CCCN2C(=O)c2cc3c(s2)CCCC3)no1 (configuration not stated),cytotoxicity at 70.5 h,-3.98%
O=C(Cc1ccc2c(c1)CCO2)N1CCN(c2cnccn2)CC1,cytotoxicity at 70.5 h,23.2%
CCOC(=O)N1CCC(C(=O)c2cc(F)ccc2F)CC1,cytotoxicity at 70.5 h,-8.51%
C=C(Cl)CN1CCC(C(=O)c2cc(F)ccc2F)CC1,cytotoxicity at 70.5 h,-10.5%
Cc1nc(C2CCCN2CC(=O)N2CCCc3ccccc32)no1 (configuration not stated),cytotoxicity at 70.5 h,-6.37%
Cc1ccc(-c2nc(CNCCn3cccn3)cs2)o1,cytotoxicity at 70.5 h,-7.84%
CC(C(=O)NCCOc1ccc2c(c1)OCO2)n1cncn1 (configuration not stated),cytotoxicity at 70.5 h,-13.4%
COc1ccc2c(c1)CCCN2Cc1nc2c(cnn2C)c(=O)[nH]1,cytotoxicity at 70.5 h,-11.4%
Cc1cc(C)cc(C2(C(=O)NC(C)Cn3ccnc3)CC2)c1 (configuration not stated),cytotoxicity at 70.5 h,9.35%
N#CC1(C(=O)N2CCN(Cc3cscn3)CC2)CCCC1,cytotoxicity at 70.5 h,14.2%
CCn1cnnc1C1CCN(C(=O)c2cnc(C3CC3)s2)CC1,cytotoxicity at 70.5 h,-10.2%
CCc1nnc2n1CCN(C(=O)Cc1csc(-c3ccco3)n1)C2,cytotoxicity at 70.5 h,-15.6%
CCc1nnc2n1CCN(C(=O)c1ccc(C(F)(F)F)nc1C)C2,cytotoxicity at 70.5 h,-15.4%
CCc1nc2n(n1)CC(NCC(=O)Nc1cc(C)on1)CC2 (configuration not stated),cytotoxicity at 70.5 h,12.5%
CCc1nc2n(n1)CC(NCC(=O)Nc1ccc(Cl)cn1)CC2 (configuration not stated),cytotoxicity at 70.5 h,-18.9%
O=C(NCc1ccccn1)N(Cc1ccc(F)cc1F)C1CC1,cytotoxicity at 70.5 h,-17.3%
O=C(Cn1cnnn1)N1CCCCC1Cn1cccn1 (configuration not stated),cytotoxicity at 70.5 h,17.9%
N#CC1(C(=O)N2CCN(Cc3ccon3)CC2)CCC1,cytotoxicity at 70.5 h,-20%
CCCc1noc(CCC(=O)N2CCCC2c2noc(C3CC3)n2)n1 (configuration not stated),cytotoxicity at 70.5 h,-16.9%
CCc1noc(CN2CCN(C(=O)N(C)C)CC2)n1,cytotoxicity at 70.5 h,20.5%
CC(C)c1noc(CCCC(=O)N2CCC(Cc3cccnc3)CC2)n1,cytotoxicity at 70.5 h,-20.7%
CCCc1noc(CCC(=O)N2CCCC2c2ccsc2)n1 (configuration not stated),cytotoxicity at 70.5 h,-16.1%
Cc1cc(CN(C)C(=O)NCc2cccc(N3CCCC3=O)c2)no1,cytotoxicity at 70.5 h,-25.6%
CN(Cc1ccc(F)cc1)C(=O)CN1CCOC(Cn2cncn2)C1 (configuration not stated),cytotoxicity at 70.5 h,40.3%
Cc1ccc(CN(C)C(=O)CN2CCOC(Cn3cncn3)C2)o1 (configuration not stated),cytotoxicity at 70.5 h,9.12%
CC(C)NC(=O)CS(=O)(=O)Cc1cc(Cl)c2c(c1)OCCO2,cytotoxicity at 70.5 h,-1.77%
CCn1cc(NC(=O)NCC(C)O)cn1 (configuration not stated),cytotoxicity at 70.5 h,-1.8%
CCc1nc(CN(CC(N)=O)C(C)C)cs1,cytotoxicity at 70.5 h,18.1%
CCn1cc(NC(=O)NCC(O)c2ccccc2)cn1 (configuration not stated),cytotoxicity at 70.5 h,2.91%
CCOc1ccnc(N2CCN(C(=O)c3cn[nH]c3CC)CC2)n1,cytotoxicity at 70.5 h,-3.19%
CCNc1cc2c(nn1)CCN(C(=O)CC1CCCCC1)C2,cytotoxicity at 70.5 h,-4.16%
CCCOc1ccc(CNC2CCCc3c2cnn3CC)cc1OC (configuration not stated),cytotoxicity at 70.5 h,29.4%
CS(=O)(=O)c1ccc(CNC(=O)N2CCC(c3ccccc3)CC2)cc1,cytotoxicity at 70.5 h,-2.27%
O=C(c1ccc(O)cc1)N1CCN(C(=O)c2ccc3c(c2)COC3)CC1,cytotoxicity at 70.5 h,2.44%
CC(O)CN1CCN(C(=O)c2ccc3c(c2)COC3)CC1 (configuration not stated),cytotoxicity at 70.5 h,22.6%
COc1ccc(Cl)cc1C(=O)N1CCCC(n2nc(C)nc2C)C1 (configuration not stated),cytotoxicity at 70.5 h,27.7%
CC(C)c1n[nH]c(C2CN(Cc3nnc(C4CC4)o3)CCO2)n1 (configuration not stated),cytotoxicity at 70.5 h,24.8%
Cc1nn(C)c(C)c1C1CCCN1Cc1cccc(C(N)=O)c1 (configuration not stated),cytotoxicity at 70.5 h,4%
COc1cccc(CN2CCCC2c2c(C)nn(C)c2C)c1 (configuration not stated),cytotoxicity at 70.5 h,3.04%
c1ccc(-c2nc(CN3CCCC3Cn3cncn3)cs2)cc1 (configuration not stated),cytotoxicity at 70.5 h,14.3%
CCS(=O)(=O)CCN1CCCC1c1noc(C2CC2)n1 (configuration not stated),cytotoxicity at 70.5 h,27%
CCc1nc(CN(C(C)=O)C2CCN(Cc3cnc(C)cn3)C2)no1 (configuration not stated),cytotoxicity at 70.5 h,23.6%
COc1cccc(OCC(=O)NS(=O)(=O)c2ccc(C)s2)c1,cytotoxicity at 70.5 h,14%
CC(NC(=O)NCCCc1n[nH]c(N)c1C#N)c1cccs1 (configuration not stated),cytotoxicity at 70.5 h,44.5%
CCOc1ncccc1NC(=O)NCC(O)c1ccccc1OC (configuration not stated),cytotoxicity at 70.5 h,11.2%
CC(NC(=O)NCCCc1n[nH]c(N)c1C#N)c1ccccc1 (configuration not stated),cytotoxicity at 70.5 h,26.6%
COc1cccc(-n2c(C)cc(C(=O)NS(C)(=O)=O)c2C)c1,cytotoxicity at 70.5 h,-1.93%
COCCOc1ccc(NC(=O)C2CC(=O)N(C)C2)cn1 (configuration not stated),cytotoxicity at 70.5 h,-4.68%
COCCOc1ccc(NC(=O)C2CCCN(C(N)=O)C2)cn1 (configuration not stated),cytotoxicity at 70.5 h,4.12%
Cc1ccc(-c2nnc(CN3CCOC(Cn4cccn4)C3)o2)cc1 (configuration not stated),cytotoxicity at 70.5 h,-7.48%
Cc1cnc(NC(=O)c2ccc(-n3ncc(C#N)c3N)cc2)s1,cytotoxicity at 70.5 h,8.89%
COc1ccc(C2=CCN(C(=O)CN(C)CC(N)=O)CC2)cc1,cytotoxicity at 70.5 h,-2.43%
Cc1cccc(C2(NC(=O)CCN3C(=O)CCC3=O)CCCC2)c1,cytotoxicity at 70.5 h,-6.61%
CCN1CCN(C2CCN(Cc3c(C)noc3C)CC2)C1=O,cytotoxicity at 70.5 h,25.5%
COC(=O)N1CCCC(C(=O)NCc2cc3cccc(OC)c3o2)C1 (configuration not stated),cytotoxicity at 70.5 h,-6.62%
CCCC(Nc1c(C#N)c(=O)n(C)c(=O)n1C)c1ccc(F)cc1F (configuration not stated),cytotoxicity at 70.5 h,9.48%

# From ChEMBL document CHEMBL3507680, “University of Dundee, Gates Library screen for HepG2 cell viability”
